Source: article PMC7243365 (Antiviral research, 2020)

Legend:
[1] = tested on: his-tagged HA (H5) protein binding to A549 cells; set-up: species or system influenza A virus H5; settings: for IC50: read-out: IC50 HA (H5) protein binding to A549 cells
[2] = tested on: A/Puerto Rico/8/34 (H1N1); settings: oral administration; ref van Dongen et al., 2019; cited from earlier work
[3] = tested on: H1N1-GFP (A/Puerto Rico/8/34, NS1-GFP); type: cell-based, influenza A virus H1N1; settings: for IC50: read-out: IC50 anti-H1N1
A549 cells = experiment: Cell viability assay; settings: 48 h, CellTiter-Glo
HIV/H5N1 pseudovirus [4] = type: cell-based, influenza A virus A/Goose/Qinghai/59/05 (H5N1); settings: read-out: IC50 HIV/H5N1
[5] = tested on: VN04Low (H5N1), A/Vietnam/1203/04; type: cell-based, influenza A virus H5N1
A/HongKong/2/68 (H3N2) = type: cell-based, influenza A virus H3N2
[6] = tested on: A/rhea/North Carolina/39482/93 (H7N1); type: cell-based, influenza A virus H7N1
[7] = tested on: A/Puerto Rico/8/34 (H1N1); type: cell-based, influenza A virus H1N1; settings: read-out: IC50 H1N1 plaque reduction
VN04Low (H5N1) = type: cell-based, influenza A virus H5N1; settings: read-out: IC50 H5N1 plaque reduction
HIV/H5N1 pseudovirus [8] = type: cell-based, influenza A virus H5N1; settings: 10 µM
[9] = tested on: H1N1-GFP (A/Puerto Rico/8/34, NS1-GFP); type: cell-based, influenza A virus H1N1
[10] = tested on: HIV/H5N1 pseudovirus HA-mediated hemolysis; settings: read-out: IC50 hemolysis inhibition; pH 5

Compound: CC(=O)N[C@H]1[C@H]([C@H](O)[C@H](O)CO)O[C@@](O[C@H]2[C@@H](O)[C@@H](CO)O[C@@H](O[C@H]3[C@H](O)[C@@H](O)C(O)O[C@@H]3CO)[C@@H]2O)(C(=O)O)C[C@@H]1O (stereo partly shown) [2,3-sialyllactose]
- inhibition of HA (H5) protein binding at 9 mM [1]: inhibited protein binding completely
- IC50 [1]: 1800 µM

Compound: CC(=O)N[C@H]1[C@H]([C@H](O)[C@H](O)CO)O[C@@](OC[C@H]2O[C@@H](O[C@H]3[C@H](O)[C@@H](O)C(O)O[C@@H]3CO)[C@H](O)[C@@H](O)[C@H]2O)(C(=O)O)C[C@@H]1O (stereo partly shown) [2,6-sialyllactose]
- inhibition of HA (H5) protein binding at 27 mM [1]: 47%
- IC50 [1]: 29500 µM

Compound: CC(=O)Nc1ccc2oc(-c3ccnc(C(=O)N4CCN([C@H](c5ccccc5)c5nnn(C)n5)CC4)c3)nc2c1 [JNJ4796]
- protection of mice against H1N1 challenge [2]: protects mice

Compound: CC(C)N1CCC(NC(=O)c2c(Cl)cccc2Cl)CC1 [CBS1117]
- IC50 [3]: 0.07 µM
- CC50 (A549 cells): 274 µM

Compound: CC(C)N1CCC(NC(=O)c2ccc(Cl)cc2Cl)CC1 [CBS1116, 2,4-dichloro-N-(1-isopropyl-4-piperidinyl) benzamide]
- IC50 (HIV/H5N1 pseudovirus [4]): 3.9 µM
- inhibitory activity against VN04Low strain [5]: inhibitory activity against VN04Low strain in a concentration-dependent manner
- inhibition against H3N2 (A/HongKong/2/68 (H3N2)): no inhibition
- inhibition against H7N1 [6]: no inhibition
- H1N1-GFP infection at 5 μM [3]: completely blocked
- concentration at which significant inhibition of H1N1 was observed [3]: 5 µM
- IC50 [3]: 0.4 µM
- IC50 [7]: 0.4 µM
- IC50 (VN04Low (H5N1)): 13.8 µM
- inhibition of HIV/H5N1 infection, added at 0h (HIV/H5N1 pseudovirus [8]): ~ 99%
- inhibition of HIV/H5N1 infection, added at +1h (HIV/H5N1 pseudovirus [8]): 75%
- inhibition of HIV/H5N1 infection, added at +2h (HIV/H5N1 pseudovirus [8]): 41%
- inhibition of HIV/H5N1 infection, added at -1h (HIV/H5N1 pseudovirus [8]): no inhibition
- cells infected by H1N1-GFP, added at 0h [9]: 0%
- cells infected by H1N1-GFP, added at +1h [9]: 17%
- cells infected by H1N1-GFP, added at +2h [9]: 26%
- cells infected by H1N1-GFP, added at +3h [9]: 33%
- cells infected by H1N1-GFP, added at -1h [9]: 38%
- HA protein still bound to the cells [1]: 100%
- cell toxicity to MDCK cells (MDCK cells): no cell toxicity
- IC50 [10]: 6 µM
